Measurements as given in patent publication US12570650B2, “6-substituted pyridazine compounds as SMARCA2 and/or SMARCA4 degraders” (Aurigene Oncology Limited, priority 2020, dated 2026).

Experiments:
Assay type in all cases: cell-based
RERF-LC-A1 cell line = assay: Anti proliferative activity, Cell Titer Glo assay, RERF-LC-A1; conditions: 144 h; RERF-LC-A1 cells, terminated day 6 without retreatment, CellTiter-Glo
Description: (§1) Example-P3: Determination of Anti Proliferative Activity of Compounds by Cell Titer Glo®(Promega) Assay
(§2) Cells were seeded into 96-well plates and the plate was incubated in 37 degrees incubator overnight. The next day, compounds were diluted 3-fold to cover 9-point concentration range in DMSO. Intermediate plate dilution was prepared in media followed with compound treatment in cells. Retreatment of cells with compound dilutions was performed on Day 4 and assay was terminated on day 8 for SK-MEL-5 cells using CellTiter-Glo and the plate was kept on orbital shaker for 20 minutes at RT. Assay was terminated on day 6 for RERF-LC-A1 without a compound retreatment. Luminescence signal was recorded on VICTOR^3 instrument. Percent inhibition of proliferation was calculated at each concentration and plotted against the compound concentration. EC50 value was calculated using GraphPad software.
Herein the group “++” refers to EC50 (RERF-LC-A1) values lower than 100 nM and “+” refers to EC50 (RERF-LC-A1) values greater than 100 nM.

SMARCA2 = target: T1, SMARCA2 (Homo sapiens, UniProt P51531); assay: SMARCA2 degradation in VCaP cells by Western blot; conditions: 16 hours
T1 construct: Determination of SMARCA2 and SMARCA4 Degradation in VCaP Cells by Western Blot; endogenous in cells; host or cells: VCaP (ATCC CRL-2876)
T1 sequence (P51531 whole entry): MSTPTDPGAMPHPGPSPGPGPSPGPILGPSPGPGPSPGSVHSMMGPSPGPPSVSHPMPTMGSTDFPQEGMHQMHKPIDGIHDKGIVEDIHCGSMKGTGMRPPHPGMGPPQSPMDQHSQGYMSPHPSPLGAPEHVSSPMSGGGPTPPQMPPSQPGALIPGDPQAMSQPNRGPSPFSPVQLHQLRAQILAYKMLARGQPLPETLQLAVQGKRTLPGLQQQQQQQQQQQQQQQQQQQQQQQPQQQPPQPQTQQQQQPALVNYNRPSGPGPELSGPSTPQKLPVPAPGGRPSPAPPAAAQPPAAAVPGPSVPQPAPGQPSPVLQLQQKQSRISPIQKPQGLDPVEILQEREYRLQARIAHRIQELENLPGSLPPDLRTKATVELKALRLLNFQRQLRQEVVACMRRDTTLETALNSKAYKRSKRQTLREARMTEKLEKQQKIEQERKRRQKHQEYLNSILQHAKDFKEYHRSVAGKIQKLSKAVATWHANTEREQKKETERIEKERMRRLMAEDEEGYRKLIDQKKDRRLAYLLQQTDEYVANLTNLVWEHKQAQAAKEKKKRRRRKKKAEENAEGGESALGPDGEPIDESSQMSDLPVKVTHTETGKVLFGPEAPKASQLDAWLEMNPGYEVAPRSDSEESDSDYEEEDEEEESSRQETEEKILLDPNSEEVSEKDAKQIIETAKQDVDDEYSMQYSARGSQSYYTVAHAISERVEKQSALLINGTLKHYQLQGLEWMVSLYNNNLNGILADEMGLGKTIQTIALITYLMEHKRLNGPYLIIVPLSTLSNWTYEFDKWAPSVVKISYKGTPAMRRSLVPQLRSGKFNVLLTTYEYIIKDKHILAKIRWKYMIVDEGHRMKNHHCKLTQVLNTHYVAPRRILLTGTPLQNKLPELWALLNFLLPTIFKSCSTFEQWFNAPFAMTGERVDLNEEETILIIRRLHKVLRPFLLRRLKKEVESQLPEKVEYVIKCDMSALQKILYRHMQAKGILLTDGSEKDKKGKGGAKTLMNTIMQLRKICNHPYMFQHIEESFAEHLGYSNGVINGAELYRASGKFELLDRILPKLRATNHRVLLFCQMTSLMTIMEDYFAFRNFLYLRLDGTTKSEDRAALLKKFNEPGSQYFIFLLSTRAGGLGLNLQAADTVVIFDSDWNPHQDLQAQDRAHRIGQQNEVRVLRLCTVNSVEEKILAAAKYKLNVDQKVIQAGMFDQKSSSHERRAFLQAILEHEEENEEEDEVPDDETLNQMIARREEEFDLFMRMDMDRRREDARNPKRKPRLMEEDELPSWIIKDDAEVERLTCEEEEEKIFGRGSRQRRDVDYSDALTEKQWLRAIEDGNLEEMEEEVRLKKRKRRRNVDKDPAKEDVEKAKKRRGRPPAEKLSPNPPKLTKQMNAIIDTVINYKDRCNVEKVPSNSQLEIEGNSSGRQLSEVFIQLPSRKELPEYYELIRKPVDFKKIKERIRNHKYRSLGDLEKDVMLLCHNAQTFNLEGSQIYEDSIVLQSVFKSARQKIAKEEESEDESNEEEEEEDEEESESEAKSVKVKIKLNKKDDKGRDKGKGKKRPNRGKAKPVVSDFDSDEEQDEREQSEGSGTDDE
Description: Example-P2: Determination of SMARCA2 and SMARCA4 Degradation in VCaP Cells by Western Blot
VCaP (ATCC CRL-2876) was plated in 6 well plates using complete Dulbecco's Modified Eagle's Medium. On the third day, compounds of present invention were added to cells from 10 mM stocks made in DMSO (Sigma Cat no. D2650). Each concentration of compound was tested with DMSO not exceeding final percentage of 0.3 in the cells. Cells were incubated with the compound for 16 hours followed by harvesting with 1×RIPA lysis buffer (Thermo Fischer, catalogue number #89900) containing protease inhibitor cocktail (Sigma catalogue number #P-8340). Equal amount of protein was loaded on SDS PAGE gel for electrophoresis. Western blot was carried out for detection of either SMARCA2 (Cell signalling technologies, catalogue number #11966) or SMARCA4 antibody (Cell signalling technologies, catalogue number #52251). Beta-Tubulin antibody (Cell signalling technologies, catalogue number #86298) was used as loading control. Percentage of SMARCA2 or SMARCA4 degradation was calculated using formula % Degradation=100−(normalized band intensity in treated sample/normalized band intensity in DMSO sample)*100.

SMARCA4 = target: T2, SMARCA4 (Homo sapiens, UniProt P51532); assay: SMARCA4 degradation in VCaP cells by Western blot; conditions: 16 hours
T2 construct: Determination of SMARCA2 and SMARCA4 Degradation in VCaP Cells by Western Blot; endogenous in cells; host or cells: VCaP (ATCC CRL-2876)
T2 sequence (P51532 whole entry): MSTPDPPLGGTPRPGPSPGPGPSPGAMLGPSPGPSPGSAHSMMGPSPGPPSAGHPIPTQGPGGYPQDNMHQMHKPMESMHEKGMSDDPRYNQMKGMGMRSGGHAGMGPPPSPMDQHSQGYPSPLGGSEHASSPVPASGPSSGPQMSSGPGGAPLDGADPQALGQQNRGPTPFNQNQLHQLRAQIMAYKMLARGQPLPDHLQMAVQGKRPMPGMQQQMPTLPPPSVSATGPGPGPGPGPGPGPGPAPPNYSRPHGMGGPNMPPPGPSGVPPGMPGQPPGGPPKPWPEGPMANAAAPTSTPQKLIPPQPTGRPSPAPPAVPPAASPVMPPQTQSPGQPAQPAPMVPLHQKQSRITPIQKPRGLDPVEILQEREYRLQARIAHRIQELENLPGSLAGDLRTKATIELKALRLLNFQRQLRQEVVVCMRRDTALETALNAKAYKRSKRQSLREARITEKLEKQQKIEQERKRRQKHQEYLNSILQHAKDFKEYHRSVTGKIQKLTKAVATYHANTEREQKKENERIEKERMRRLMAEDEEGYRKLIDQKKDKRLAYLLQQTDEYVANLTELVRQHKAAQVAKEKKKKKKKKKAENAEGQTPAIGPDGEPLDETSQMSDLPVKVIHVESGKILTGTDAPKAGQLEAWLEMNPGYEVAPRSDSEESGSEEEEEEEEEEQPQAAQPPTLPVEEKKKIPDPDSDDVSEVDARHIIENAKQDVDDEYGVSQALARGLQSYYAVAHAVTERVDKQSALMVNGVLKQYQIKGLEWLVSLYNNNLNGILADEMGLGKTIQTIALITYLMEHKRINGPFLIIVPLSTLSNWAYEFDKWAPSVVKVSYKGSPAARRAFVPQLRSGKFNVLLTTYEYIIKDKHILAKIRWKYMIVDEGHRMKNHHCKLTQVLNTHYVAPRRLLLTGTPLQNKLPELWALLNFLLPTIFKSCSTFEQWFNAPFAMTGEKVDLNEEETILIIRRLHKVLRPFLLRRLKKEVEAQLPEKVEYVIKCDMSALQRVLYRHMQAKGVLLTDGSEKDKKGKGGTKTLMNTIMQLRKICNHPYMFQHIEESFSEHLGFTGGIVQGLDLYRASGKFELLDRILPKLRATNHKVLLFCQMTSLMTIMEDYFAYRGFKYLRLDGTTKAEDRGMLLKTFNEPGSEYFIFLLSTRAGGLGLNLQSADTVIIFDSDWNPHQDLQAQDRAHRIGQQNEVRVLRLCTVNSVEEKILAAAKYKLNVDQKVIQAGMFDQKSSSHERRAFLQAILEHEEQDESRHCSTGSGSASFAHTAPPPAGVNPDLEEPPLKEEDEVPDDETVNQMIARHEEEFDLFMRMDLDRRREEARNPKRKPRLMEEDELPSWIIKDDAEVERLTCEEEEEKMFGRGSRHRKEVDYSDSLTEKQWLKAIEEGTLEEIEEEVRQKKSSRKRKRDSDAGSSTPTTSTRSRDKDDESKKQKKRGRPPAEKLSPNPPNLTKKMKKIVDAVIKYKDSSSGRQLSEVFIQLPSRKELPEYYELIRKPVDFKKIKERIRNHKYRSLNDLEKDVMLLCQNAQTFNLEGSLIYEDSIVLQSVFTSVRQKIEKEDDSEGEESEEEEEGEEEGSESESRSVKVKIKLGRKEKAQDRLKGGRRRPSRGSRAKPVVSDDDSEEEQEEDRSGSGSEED
Description: On the third day, compounds of present invention were added to cells from 10 mM stocks made in DMSO (Sigma Cat no. D2650). Each concentration of compound was tested with DMSO not exceeding final percentage of 0.3 in the cells. […] Equal amount of protein was loaded on SDS PAGE gel for electrophoresis. […] Percentage of SMARCA2 or SMARCA4 degradation was calculated using formula % Degradation=100−(normalized band intensity in treated sample/normalized band intensity in DMSO sample)*100.

SK-MEL-5 cells = assay: Anti proliferative activity, Cell Titer Glo assay, SK-MEL-5; conditions: Homo sapiens, SK-MEL-5, SK-MEL-5 cells, retreatment Day 4, terminated day 8, CellTiter-Glo
Description: as §1, §2

SMILES	EC50 (RERF-LC-A1 cell line) [nM]	Percent degradation (at 100 nM) SMARCA2 (SMARCA2) [%]	Percent degradation (at 100 nM) SMARCA4 (SMARCA4) [%]	EC50 (SK-MEL-5 cells) [nM]
Cc1ncsc1-c1ccc([C@H](C)NC(=O)[C@@H]2C[C@@H](O)CN2C(=O)C(c2cc(OCCOc3ccc(-c4cnnc(-c5ccccc5O)c4)cc3)no2)C(C)C)cc1 (mixture of isomers) [Compound 42, (2S,4R)-4-hydroxy-1-(2-(3-(2-(4-(6-(2-hydroxyphenyl)pyridazin-4-yl)phenoxy)ethoxy)isoxazol-5-yl)-3-methylbutanoyl)-N-((S)-1-(4-(4-methylthiazol-5-yl)phenyl)ethyl)pyrrolidine-2-carboxamide]	> 100	57	–	–
Cc1ncsc1-c1ccc([C@H](C)NC(=O)[C@@H]2C[C@@H](O)CN2C(=O)[C@@H](NC(=O)CN2CCN(c3ccc(-c4cnnc(-c5ccccc5O)c4)cc3)CC2)C(C)(C)C)cc1 [Compound 2, (2S,4R)-4-hydroxy-1-((S)-2-(2-(4-(4-(6-(2-hydroxyphenyl)pyridazin-4-yl)phenyl)piperazin-1-yl)acetamido)-3,3-dimethylbutanoyl)-N-((S)-1-(4-(4-methylthiazol-5-yl)phenyl)ethyl)pyrrolidine-2-carboxamide]	< 100	94	0	< 250
Cc1ncsc1-c1ccc([C@H](C)NC(=O)[C@@H]2C[C@@H](O)CN2C(=O)[C@@H](NC(=O)C(C)N2CCC(c3ccc(-c4cnnc(-c5ccccc5O)c4)cc3)CC2)C(C)(C)C)cc1 (stereo partly drawn) [Compound 14, (2S,4R)-4-hydroxy-1-((2S)-2-(2-(4-(4-(6-(2-hydroxyphenyl)pyridazin-4-yl)phenyl)piperidin-1-yl)propanamido)-3,3-dimethylbutanoyl)-N-((S)-1-(4-(4-methylthiazol-5-yl)phenyl)ethyl)pyrrolidine-2-carboxamide]	< 100	–	–	> 500
Cc1ncsc1-c1ccc([C@H](C)NC(=O)[C@@H]2C[C@@H](O)CN2C(=O)[C@@H](NC(=O)C2CCC(c3ccc(-c4cnnc(-c5ccccc5O)c4)cc3)CC2)C(C)(C)C)cc1 (stereo partly drawn) [Compound 18, (2S,4R)-4-hydroxy-1-((S)-2-(4-(4-(6-(2-hydroxyphenyl)pyridazin-4-yl)phenyl)cyclohexane-1-carboxamido)-3,3-dimethylbutanoyl)-N-((S)-1-(4-(4-methylthiazol-5-yl)phenyl)ethyl)pyrrolidine-2-carboxamide]	–	95	0	< 250
Cc1ncsc1-c1ccc([C@H](C)NC(=O)[C@@H]2C[C@@H](O)CN2C(=O)[C@@H](NC(=O)CN2CCCC(c3ccc(-c4cnnc(-c5ccccc5O)c4)cc3)C2)C(C)(C)C)cc1 (stereo partly drawn) [Compound 20, (2S,4R)-4-hydroxy-1-((2S)-2-(2-(3-(4-(6-(2-hydroxyphenyl)pyridazin-4-yl)phenyl)piperidin-1-yl)acetamido)-3,3-dimethylbutanoyl)-N-((S)-1-(4-(4-methylthiazol-5-yl)phenyl)ethyl)pyrrolidine-2-carboxamide]	–	41	0	250 to 500
Cc1ncsc1-c1ccc([C@H](C)NC(=O)[C@@H]2C[C@@H](O)CN2C(=O)[C@@H](NC(=O)CN2CC(c3ccc(-c4cnnc(-c5ccccc5O)c4)cc3)C2)C(C)(C)C)cc1 [Compound 21, (2S,4R)-4-hydroxy-1-((S)-2-(2-(3-(4-(6-(2-hydroxyphenyl)pyridazin-4-yl)phenyl)azetidin-1-yl)acetamido)-3,3-dimethylbutanoyl)-N-((S)-1-(4-(4-methylthiazol-5-yl)phenyl)ethyl)pyrrolidine-2-carboxamide]	–	21	4	> 500
Cc1ncsc1-c1ccc([C@H](C)NC(=O)[C@@H]2C[C@@H](O)CN2C(=O)[C@@H](NC(=O)CN2CCC(c3cccc(-c4cnnc(-c5ccccc5O)c4)c3)CC2)C(C)(C)C)cc1 [Compound 23, (2S,4R)-4-hydroxy-1-((S)-2-(2-(4-(3-(6-(2-hydroxyphenyl)pyridazin-4-yl)phenyl)piperidin-1-yl)acetamido)-3,3-dimethylbutanoyl)-N-((S)-1-(4-(4-methylthiazol-5-yl)phenyl)ethyl)pyrrolidine-2-carboxamide]	–	15	0	> 500
Cc1ncsc1-c1ccc([C@H](C)NC(=O)[C@@H]2C[C@@H](O)CN2C(=O)[C@@H](NC(=O)CN2C3CCC2CC(c2ccc(-c4cnnc(-c5ccccc5O)c4)cc2)C3)C(C)(C)C)cc1 (stereo partly drawn) [Compound 25, (2S,4R)-4-hydroxy-1-((2S)-2-(2-(3-(4-(6-(2-hydroxyphenyl)pyridazin-4-yl)phenyl)-8-azabicyclo[3.2.1]octan-8-yl)acetamido)-3,3-dimethylbutanoyl)-N-((S)-1-(4-(4-methylthiazol-5-yl)phenyl)ethyl)pyrrolidine-2-carboxamide]	–	75	0	250 to 500
Cc1ncsc1-c1ccc([C@H](C)NC(=O)[C@@H]2C[C@@H](O)CN2C(=O)[C@@H](NC(=O)C(C)N2CCN(c3ccc(-c4cnnc(-c5ccccc5O)c4)cc3)CC2)C(C)(C)C)cc1 (some centres unmarked) [Compound 28]	–	38	0	250 to 500
Cc1ncsc1-c1ccc([C@H](C)NC(=O)[C@@H]2C[C@@H](O)CN2C(=O)[C@@H](NC(=O)CN2CC3(CC(c4ccc(-c5cnnc(-c6ccccc6O)c5)cc4)C3)C2)C(C)(C)C)cc1 [Compound 31, (2S,4R)-4-hydroxy-1-((S)-2-(2-(6-(4-(6-(2-hydroxyphenyl)pyridazin-4-yl)phenyl)-2-azaspiro[3.3]heptan-2-yl)acetamido)-3,3-dimethylbutanoyl)-N-((S)-1-(4-(4-methylthiazol-5-yl)phenyl)ethyl)pyrrolidine-2-carboxamide]	–	89	0	250 to 500
Cc1ncsc1-c1ccc([C@H](C)NC(=O)[C@@H]2C[C@@H](O)CN2C(=O)[C@@H](NC(=O)CN2CCC(O)(c3ccc(-c4cnnc(-c5ccccc5O)c4)cc3)CC2)C(C)(C)C)cc1 [Compound 32, (2S,4R)-4-hydroxy-1-((S)-2-(2-(4-hydroxy-4-(4-(6-(2-hydroxyphenyl)pyridazin-4-yl)phenyl)piperidin-1-yl)acetamido)-3,3-dimethylbutanoyl)-N-((S)-1-(4-(4-methylthiazol-5-yl)phenyl)ethyl)pyrrolidine-2-carboxamide]	–	57	0	> 500
Cc1ncsc1-c1ccc([C@H](C)NC(=O)[C@@H]2C[C@@H](O)CN2C(=O)[C@@H](NC(=O)CCCCNc2ccc(-c3cnnc(-c4ccccc4O)c3)cc2)C(C)(C)C)cc1 [Compound 36, (2S,4R)-4-hydroxy-1-((S)-2-(5-((4-(6-(2-hydroxyphenyl)pyridazin-4-yl)phenyl)amino)pentanamido)-3,3-dimethylbutanoyl)-N-((S)-1-(4-(4-methylthiazol-5-yl)phenyl)ethyl)pyrrolidine-2-carboxamide]	–	90	19	< 250
